Measured values taken from patent EP4707280A1, “1,4-CINEOLE DERIVATIVE AND INTERMEDIATE THEREOF, HERBICIDE CONTAINING SAID DERIVATIVE AS ACTIVE INGREDIENT, METHOD FOR USING HERBICIDE, AND METHOD FOR PREPARING AGROCHEMICAL COMPOSITION” (HOKKO CHEMICAL INDUSTRY CO., LTD., priority 2023, dated 2024).

How the values were obtained:
Type in all cases: in vivo
[1] = test system: Echinochloa crus-galli; experiment: Test Example 8: herbicidal effect test by stem and leaf treatment in upland field (low dose); settings: Echinochloa crus-galli; 7.5 g per 10 ares; sprayed seven days after sowing, upland soil; 14 days after application; read-out: weed inhibition rate
[2] = test system: Digitaria ciliaris; experiment: as above; settings: Digitaria ciliaris; 7.5 g per 10 ares; sprayed seven days after sowing, upland soil; 14 days after application; read-out: weed inhibition rate
[3] = test system: Monochoria vaginalis; experiment: Test Example 2: herbicidal effect test by application during growth period of paddy rice; settings: Pontederia vaginalis; 120 g per 10 ares; applied seven days after sowing, flooded pots; 14 days after application; read-out: weed inhibition rate
How it was run: (§1)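 Flooded paddy pot test, greenhouse. Seeds 30/species, 0–1 cm depth, water ~3 cm. EC diluted in water, dropper-applied 7 d post-sowing at 120 g a.i./10 a. Inhibition rate (%) read 14 d after treatment; n=2.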

[4] = test system: Scirpus juncoides; experiment: as above; settings: Schoenoplectiella juncoides; 120 g per 10 ares; applied seven days after sowing, flooded pots; 14 days after application; read-out: weed inhibition rate
How it was run: as §1

[5] = test system: Echinochloa crus-galli var. formosensis; experiment: as above; settings: Echinochloa crus-galli; 120 g per 10 ares; applied seven days after sowing, flooded pots; 14 days after application; read-out: weed inhibition rate
How it was run: as §1

[6] = test system: Digitaria ciliaris; experiment: Test Example 4: herbicidal effect test by stem and leaf treatment in upland field; settings: Digitaria ciliaris; 120 g per 10 ares; sprayed seven days after sowing, upland soil; 14 days after application; read-out: weed inhibition rate
[7] = test system: Echinochloa crus-galli; experiment: Test Example 3: herbicidal effect test by soil application in upland field; settings: Echinochloa crus-galli, 120 g per 10 ares, sprayed one day after sowing, 14 days after application, read-out: weed inhibition rate
How it was run: (§2)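 Pre-emergence test: seeds mixed into top 1 cm of alluvial loam upland soil in pots; emulsifiable concentrate diluted in water sprayed on soil one day after sowing at 100 L/10 a, 120 g a.i./10 a. Weed inhibition rate (%) scored at 14 days, in duplicate.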

[8] = test system: Digitaria ciliaris; experiment: as above; settings: Digitaria ciliaris, 120 g per 10 ares, sprayed one day after sowing, 14 days after application, read-out: weed inhibition rate
How it was run: as §2

[9] = test system: Echinochloa crus-galli var. formosensis; experiment: Test Example 6: herbicidal effect test by application during growth period of paddy rice (low dose); settings: Echinochloa crus-galli; 7.5 g per 10 ares; applied seven days after sowing, flooded pots; 14 days after application; read-out: weed inhibition rate
How it was run: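 Paddy soil in flooded Wagner pots (about 3 cm water), weeds sown at 0–1 cm, 30 seeds each, grown in a glass greenhouse. Seven days after sowing, water-diluted emulsifiable concentrate was dropped into the water at 7.5 g active ingredient per 10 ares. Weed inhibition rate (%) was scored 14 days after application, in duplicate.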

[10] = test system: Echinochloa crus-galli; experiment: Test Example 7: herbicidal effect test by soil application in upland field (low dose); settings: Echinochloa crus-galli, 7.5 g per 10 ares, sprayed one day after sowing, 14 days after application, read-out: weed inhibition rate
How it was run: (§3)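 Read-out: weed inhibition rate (%) at 14 d post-treatment, duplicate pots per concentration. Seeds sown in the top 1 cm of upland alluvial loam; emulsifiable concentrate diluted in water and sprayed on the soil surface 1 d after sowing at 7.5 g a.i./10 a (100 L/10 a spray volume).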

[11] = test system: Digitaria ciliaris; experiment: as above; settings: Digitaria ciliaris, 7.5 g per 10 ares, sprayed one day after sowing, 14 days after application, read-out: weed inhibition rate
How it was run: as §3

CC(C)[C@]12C[C@@H](OCc3ccccc3F)[C@](C)(CC1OCC1CC1)O2 (mixture of isomers) [1-921, (1S,2R,4R,SR)-5-(cyclopropylmethoxy)-2-[(2-fluorophenyl)methoxy]-1-methyl-4-isopropyl-7-oxabicyclo[2.2.1]heptane]
≥ 80%: inhibition at 75 g/ha [1] | inhibition at 75 g/ha [2] | inhibition at 1200 g/ha [3] | inhibition at 1200 g/ha [4] | inhibition at 1200 g/ha [5] | inhibition at 1200 g/ha [6] | inhibition at 1200 g/ha [7] | inhibition at 1200 g/ha [8] | inhibition at 75 g/ha [9] | inhibition at 75 g/ha [10] | inhibition at 75 g/ha [11]

CC(C)[C@]12C[C@@H](OCc3cccs3)[C@](C)(C[C@@H]1Br)O2 [1-721, (1S,2R,4R,5S)-5-bromo-1-methyl-4-isopropyl-2-(thiophen-2-ylmethoxy)-7-oxabicyclo[2.2.1]heptane]
≥ 80%: inhibition at 75 g/ha [1] | inhibition at 75 g/ha [2] | inhibition at 1200 g/ha [3] | inhibition at 1200 g/ha [5] | inhibition at 1200 g/ha [7] | inhibition at 1200 g/ha [8] | inhibition at 75 g/ha [9] | inhibition at 75 g/ha [10] | inhibition at 75 g/ha [11]

CC(C)[C@]12C[C@@H](OCc3c(F)cccc3F)[C@](C)(C[C@@H]1O)O2 [1-41, (1R,2S,4S,5R)-5-((2,6-difluorobenzyl)oxy)-1-isopropyl-4-methyl-7-oxabicyclo[2,2,1]heptan-2-ol]
≥ 80%: inhibition at 75 g/ha [1] | inhibition at 75 g/ha [2] | inhibition at 1200 g/ha [3] | inhibition at 1200 g/ha [4] | inhibition at 1200 g/ha [5] | inhibition at 1200 g/ha [6] | inhibition at 1200 g/ha [7] | inhibition at 1200 g/ha [8] | inhibition at 75 g/ha [9] | inhibition at 75 g/ha [10] | inhibition at 75 g/ha [11]

CC(C)[C@]12C[C@@H](OCc3c(Cl)cccc3Cl)[C@](C)(C[C@@H]1Br)O2 [1-712, (1S,2R,4R,5S)-5-bromo-2-[(2,6-dichlorophenyl)methoxy]-1-methyl-4-isopropyl-7-oxabicyclo[2.2.1]heptane]
≥ 80%: inhibition at 75 g/ha [1] | inhibition at 1200 g/ha [3] | inhibition at 1200 g/ha [4] | inhibition at 1200 g/ha [5] | inhibition at 1200 g/ha [6] | inhibition at 1200 g/ha [7] | inhibition at 1200 g/ha [8] | inhibition at 75 g/ha [9] | inhibition at 75 g/ha [10] | inhibition at 75 g/ha [11]

CC(C)[C@]12C[C@@H](OCc3ccccc3F)[C@](C)(C[C@H]1C)O2 [1-94, (1S,2R,4R,5R)-2-[(2-fluorophenyl)methoxy]-1,5-dimethyl-4-isopropyl-7-oxabicyclo[2.2.1]heptane]
≥ 80%: inhibition at 75 g/ha [1] | inhibition at 75 g/ha [2] | inhibition at 1200 g/ha [3] | inhibition at 1200 g/ha [5] | inhibition at 1200 g/ha [6] | inhibition at 1200 g/ha [7] | inhibition at 1200 g/ha [8] | inhibition at 75 g/ha [9] | inhibition at 75 g/ha [10] | inhibition at 75 g/ha [11]

CC(C)[C@]12C[C@@H](OCc3ccsc3)[C@](C)(C[C@@H]1Br)O2 [1-722, (1S,2R,4R,5S)-5-bromo-1-methyl-4-isopropyl-2-(thiophen-3-ylmethoxy)-7-oxabicyclo[2.2.1]heptane]
≥ 80%: inhibition at 75 g/ha [1] | inhibition at 1200 g/ha [3] | inhibition at 1200 g/ha [4] | inhibition at 1200 g/ha [5] | inhibition at 1200 g/ha [6] | inhibition at 1200 g/ha [7] | inhibition at 1200 g/ha [8] | inhibition at 75 g/ha [9] | inhibition at 75 g/ha [10] | inhibition at 75 g/ha [11]

Cc1cccc(CO[C@@H]2C[C@]3(C(C)C)O[C@@]2(C)C[C@@H]3Br)c1 [1-680, (1S,2R,4R,5S)-5-bromo-1-methyl-2-[(3-methylphenyl)methoxy]-4-isopropyl-7-oxabicyclo[2.2.1]heptane]
≥ 80%: inhibition at 75 g/ha [1] | inhibition at 1200 g/ha [3] | inhibition at 1200 g/ha [4] | inhibition at 1200 g/ha [5] | inhibition at 1200 g/ha [6] | inhibition at 1200 g/ha [7] | inhibition at 1200 g/ha [8] | inhibition at 75 g/ha [9] | inhibition at 75 g/ha [10] | inhibition at 75 g/ha [11]

Cc1cccc(C)c1CO[C@@H]1C[C@]2(C(C)C)O[C@@]1(C)CC2=O [2-5, (1R,4S,5R)-5-((2,6-dimethylbenzyl)oxy)-1-isopropyl-4-methyl-7-oxabicyclo[2.2.1]heptan-2-one]
≥ 80%: inhibition at 75 g/ha [1] | inhibition at 75 g/ha [2] | inhibition at 1200 g/ha [3] | inhibition at 1200 g/ha [5] | inhibition at 1200 g/ha [6] | inhibition at 1200 g/ha [7] | inhibition at 1200 g/ha [8] | inhibition at 75 g/ha [10] | inhibition at 75 g/ha [11]

CC(C)C1C[C@]2(C)O[C@@]1(C(C)C)C[C@H]2OCc1ccccc1F (stereo partly drawn) [1-133, (1S,2R,4R)-2-[(2-fluorobenzyl)oxy]-4,5-isopropyl-1-methyl-7-oxabicyclo[2.2.1]heptane]
≥ 80%: inhibition at 75 g/ha [1] | inhibition at 1200 g/ha [3] | inhibition at 1200 g/ha [4] | inhibition at 1200 g/ha [5] | inhibition at 1200 g/ha [6] | inhibition at 1200 g/ha [7] | inhibition at 1200 g/ha [8] | inhibition at 75 g/ha [9] | inhibition at 75 g/ha [10] | inhibition at 75 g/ha [11]

Cc1ccccc1CO[C@@H]1C[C@@]2(C(C)C)C=C[C@]1(C)O2 [3-2, (1R,4S,5R)-4-methyl-5-[(2-methylphenyl)methoxy]-1-isopropyl-7-oxabicyclo[2.2.1]hept-2-ene]
≥ 80%: inhibition at 75 g/ha [1] | inhibition at 1200 g/ha [3] | inhibition at 1200 g/ha [4] | inhibition at 1200 g/ha [5] | inhibition at 1200 g/ha [7] | inhibition at 1200 g/ha [8] | inhibition at 75 g/ha [9] | inhibition at 75 g/ha [10] | inhibition at 75 g/ha [11]

CC(C)[C@]12C[C@@H](OCc3ccc(F)cc3)[C@](C)(CC1=O)O2 [2-349, (1R,4S,5R)-5-((4-fluorobenzyl)oxy)-1-isopropyl-4-methyl-7-oxabicyclo[2.2.1]heptan-2-one]
≥ 80%: inhibition at 75 g/ha [1] | inhibition at 75 g/ha [2] | inhibition at 1200 g/ha [3] | inhibition at 1200 g/ha [5] | inhibition at 1200 g/ha [6] | inhibition at 1200 g/ha [7] | inhibition at 1200 g/ha [8] | inhibition at 75 g/ha [9] | inhibition at 75 g/ha [10] | inhibition at 75 g/ha [11]
